Marks after values point to notes of the source that are not given here.
Legend:
Format in all cases: in vivo
Kunming mice [1] = assay: Influence on hypnosis effect with pentobarbital sodium doses below the threshold (25 mg/kg i.p.); conditions: pentobarbital sodium 25 mg/kg i.p. 60 min later, sleep observed in 30 min, n = 10
Summary of the method: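 Kunming mice (10 per group, half female) given single oral doses of 25, 50 or 100 mg/kg in 0.5% CMC-Na; 60 min later pentobarbital sodium 25 mg/kg i.p. Sleep (righting reflex lost >1 min) scored within 30 min as percentage asleep, χ2 test.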

Kunming mice [2] = assay: Influence on autonomic activity of normal mice (ZIL-2 mice autonomic activity meter, counts within 10 min); conditions: intragastric, x ± s, n = 10; for Times of activities in 1 h after drug administration/10 min: 1 h after administration; for Times of activities in 2 h after drug administration/10 min: 2 h after administration; for Times of activities in 24 h after drug administration/10 min: 24 h after administration
Summary of the method: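 Kunming mice (10 per group, half each sex) were dosed at 25, 50 or 100 mg/kg in 0.5% CMC-Na. Spontaneous activity counts over 10 min were recorded at 1 h, 2 h and 24 h post-dose. Groups were compared by ANOVA with Dunnett's test after Levene's check.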

Kunming mice [3] = assay: Influence on hypnosis effect with pentobarbital sodium doses at the threshold (50 mg/kg i.p.); conditions: pentobarbital sodium 50 mg/kg i.p. 60 min later, x ± s, n = 10
Summary of the method: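 Kunming mice (10/group, half each sex) received compound in 0.5% CMC-Na intragastrically at 25, 50 or 100 mg/kg; 60 min later given 0.3% sodium pentobarbital 50 mg/kg i.p. Sleep latency and duration recorded by loss of righting reflex over 1 min; ANOVA and χ2 for sleep incidence.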

[4] = test drug 25 mg/kg intragastric single dose
[5] = test drug 50 mg/kg intragastric single dose
[6] = test drug 100 mg/kg intragastric single dose
[7] = 25 mg/kg intragastric single dose
[8] = 50 mg/kg intragastric single dose
[9] = 100 mg/kg intragastric single dose

| SMILES | Number of sleeping animals (Kunming mice [1]; [4]) | rate of sleeping (%) (Kunming mice [1]; [4]) | Number of sleeping animals (Kunming mice [1]; [5]) | rate of sleeping (%) (Kunming mice [1]; [5]) | Number of sleeping animals (Kunming mice [1]; [6]) | rate of sleeping (%) (Kunming mice [1]; [6]) | Times of activities in 1 h after drug administration/10 min (Kunming mice [2]; 25 mg/kg) | Times of activities in 2 h after drug administration/10 min (Kunming mice [2]; 25 mg/kg) | Times of activities in 24 h after drug administration/10 min (Kunming mice [2]; 25 mg/kg) | Times of activities in 1 h after drug administration/10 min (Kunming mice [2]; 50 mg/kg) | Times of activities in 2 h after drug administration/10 min (Kunming mice [2]; 50 mg/kg) | Times of activities in 24 h after drug administration/10 min (Kunming mice [2]; 50 mg/kg) | Times of activities in 1 h after drug administration/10 min (Kunming mice [2]; 100 mg/kg) | Times of activities in 2 h after drug administration/10 min (Kunming mice [2]; 100 mg/kg) | Times of activities in 24 h after drug administration/10 min (Kunming mice [2]; 100 mg/kg) | duration of sleep (Kunming mice [3]; [7]) [min] | time to sleep (Kunming mice [3]; [7]) [min] | duration of sleep (Kunming mice [3]; [8]) [min] | time to sleep (Kunming mice [3]; [8]) [min] | duration of sleep (Kunming mice [3]; [9]) [min] | also measured |
| --- | --- | --- | --- | --- | --- | --- | --- | --- | --- | --- | --- | --- | --- | --- | --- | --- | --- | --- | --- | --- | --- |
| COc1cc(OC)c2c(c1)OC(c1cc(OC)c(OC)c(OC)c1OC)CC2=O (stereo not drawn) [Example 66, 5,7,2′,3′,4′,5′-hexa methoxyl-flavanone] | 3 | 30% | 5 | 50** % | 8 | 80*** % | 307.7 ± 54.6 /10 min | 281.3 ± 31.2 /10 min | 314.7 ± 66.7 /10 min | 275.8 ± 44.3 /10 min | 270.7 ± 46.3 /10 min | 314.1 ± 81.4 /10 min | 258.4 ± 40.3 /10 min | 243.9 ± 41.2 /10 min | 334.7 ± 62.9 /10 min | 23.81 ± 25.29 | 5.37 ± 2.12 | 27.79 ± 26.78 | 5.12 ± 2.65 | 61.44 ± 47.33 | time to sleep (Kunming mice [3]; [9]): 3.14 ± 1.10 min |
| COc1ccc(-c2cc(=O)c3c(O)cc(OC)c(OC)c3o2)cc1O [Example 2, 5,3′-dihydroxyl-7,8,4′-trimethoxyl-flavone] | 5 | 50** % | 6 | 60** % | 7 | 70** % | 320.1 ± 54.7 /10 min | 293.5 ± 40.8 /10 min | 302.7 ± 77.5 /10 min | 295.3 ± 41.8 /10 min | 254.2 ± 41.1 /10 min | 306.2 ± 90.6 /10 min | 281.3 ± 47.6 /10 min | 223.5 ± 45.7 /10 min | 311.4 ± 80.3 /10 min | 35.56 ± 15.89 | 6.61 ± 2.22 | 39.23 ± 23.45 | 4.95 ± 2.23 | 53.55 ± 22.04 | time to sleep (Kunming mice [3]; [9]): 3.92 ± 1.12 min |
| COc1ccc(C2CC(=O)c3c(O)c(OC)c(OC)c(OC)c3O2)cc1 (stereo not drawn) [Example 42, 5-hydroxyl-6,7,8,4′-tetramethoxyl-flavanone] | 5 | 50** % | 8 | 80*** % | 9 | 90*** % | 231.2 ± 47.3 /10 min | 233.2 ± 35.1 /10 min | 313.5 ± 68.2 /10 min | 154.5 ± 43.2 /10 min | 145.3 ± 41.3 /10 min | 310.3 ± 62.5 /10 min | 108.5 ± 48.5 /10 min | 104.3 ± 42.5 /10 min | 302.6 ± 69.3 /10 min | 58.90 ± 15.38 | 4.42 ± 1.65 | 69.37 ± 20.24 | 3.30 ± 1.32 | 78.53 ± 19.87 | time to sleep (Kunming mice [3]; [9]): 2.26 ± 1.28 min |
| COc1ccc(C2CC(=O)c3c(OC)c(OC)c(OC)c(OC)c3O2)cc1OC (stereo not drawn) [Example 48, 5,6,7,8,3′,4′-hexamethoxyl-flavanone] | 5 | 50** % | 6 | 60** % | 8 | 80*** % | 225.6 ± 43.2 /10 min | 229.4 ± 53.7 /10 min | 308.5 ± 75.2 /10 min | 145.1 ± 41.6 /10 min | 140.6 ± 40.8 /10 min | 317.4 ± 95.6 /10 min | 120.3 ± 48.3 /10 min | 118.5 ± 42.6 /10 min | 302.1 ± 89.0 /10 min | 50.55 ± 20.76 | 3.40 ± 1.25 | 67.54 ± 21.07 | 3.19 ± 1.21 | 87.51 ± 24.93 | time to sleep (Kunming mice [3]; [9]): 2.05 ± 1.80 min |
| CC=Cc1c(C(=O)O)cc2c(=O)cc(-c3ccc(F)c(C#N)c3)oc2c1C(=O)O [Example 34] | 2 | 20% | 4 | 40* % | 6 | 60** % | 292.2 ± 49.3 /10 min | 276.2 ± 43.8 /10 min | 313.2 ± 75.4 /10 min | 249.4 ± 62.4 /10 min | 263.3 ± 59.3 /10 min | 334.7 ± 72.3 /10 min | 127.8 ± 28.6 /10 min | 243.9 ± 40.5 /10 min | 298.7 ± 81.8 /10 min | 37.89 ± 15.21 | 4.39 ± 1.61 | 44.75 ± 21.85 | 3.87 ± 1.42 | 54.77 ± 19.67 | time to sleep (Kunming mice [3]; [9]): 3.45 ± 1.38 min |
| COc1ccc(-c2oc3c(OC)c(OC)c(OC)c(OC)c3c(=O)c2OC)cc1OC [Example 41, 3,5,6,7,8,3′,4′-heptamethoxyl-flavone] | 4 | 40* % | 6 | 60** % | 8 | 80*** % | 285.2 ± 44.1 /10 min | 266.0 ± 40.6 /10 min | 307.2 ± 69.7 /10 min | 260.4 ± 37.9 /10 min | 245.5 ± 28.1 /10 min | 306.2 ± 81.3 /10 min | 198.6 ± 58.8 /10 min | 171.5 ± 56.7 /10 min | 291.5 ± 70.0 /10 min | 22.16 ± 16.23 | 5.33 ± 2.25 | 28.34 ± 17.13 | 5.12 ± 2.09 | 65.44 ± 37.54 | time to sleep (Kunming mice [3]; [9]): 3.16 ± 1.23 min |

Source: patent publication US9669003B2, “Use of flavone and flavanone derivatives in preparation of sedative and hypnotic drugs” (priority 2012, dated 2017)
